Experiments:
[1] = target: T1, Von Hippel-Lindau disease tumor suppressor/Elongin B/Elongin C (Homo sapiens, UniProt P40337); assay: Displacement of JC-9 probe from recombinant VHL/Elongin C/Elogin B (unknown origin) using FAM-DEALA-Hyp-YIPMDDDFQLRSF as substrate assessed as dissociation constant by competitive fluorescence polarization assay; type: protein-complex assay
[2] = target: Protein cereblon/Leucine-rich repeat serine/threonine-protein kinase 2 (Homo sapiens, UniProt Q5S007+Q96SW2); assay: PROTAC activity at CRBN/LRRK2 (unknown origin); type: protein assay
[3] = target: T1, Von Hippel-Lindau disease tumor suppressor/Elongin B/Elongin C; assay: Binding affinity to VHL/Elongin C/Elogin B (unknown origin) assessed as dissociation constant at 20 uM by ITC analysis; type: protein-complex assay
[4] = target: T2, Von Hippel-Lindau disease tumor suppressor/Elongin B/Elongin C (Homo sapiens) (UniProt P40337+Q15370+Q15369); assay: Binding affinity to VHL/Elongin C/Elogin B (unknown origin) assessed as change in enthalpy at 20 uM by ITC analysis; type: protein-complex assay
[5] = target: T2, Von Hippel-Lindau disease tumor suppressor/Elongin B/Elongin C (Homo sapiens); assay: Binding affinity to VHL/Elongin C/Elogin B (unknown origin) assessed as change in gibbs free energy at 20 uM by ITC analysis; type: protein-complex assay
[6] = target: T2, Von Hippel-Lindau disease tumor suppressor/Elongin B/Elongin C (Homo sapiens); assay: Binding affinity to VHL/Elongin C/Elogin B (unknown origin) assessed as change in entropy at 20 uM by ITC analysis; type: protein-complex assay
[7] = target: T3, von Hippel-Lindau disease tumor suppressor/Leucine-rich repeat serine/threonine-protein kinase 2 (Mus musculus) (UniProt Q5S006+P40338); assay: PROTAC activity at VHL/wildtype LRRK2 in MEF cells assessed as induction of LRRK2 degradation by measuring maximal efficacy at 300 nM incubated for 48 hrs by Western blot analysis relative to control; type: cell-based
[8] = target: T3, von Hippel-Lindau disease tumor suppressor/Leucine-rich repeat serine/threonine-protein kinase 2 (Mus musculus); assay: PROTAC activity at VHL/wildtype LRRK2 in MEF cells assessed as induction of LRRK2 degradation by measuring half-life at 300 nM incubated for 48 hrs by Western blot analysis; type: cell-based
[9] = target: T1, Von Hippel-Lindau disease tumor suppressor/Elongin B/Elongin C; assay: Binding affinity to VHL/Elongin C/Elogin B (unknown origin) using FAM-DEALA-Hyp-YIPMDDDFQLRSF as substrate assessed as dissociation constant by fluorescence polarization assay; type: protein-complex assay
[10] = tested on: HEK293; assay: Binding affinity to C-terminal NanoLuc fused human LRRK2/VHL-elongin-B-elongin C (unknown origin) complex expressed in HEK293 cells assessed as ternary complex formation by measuring cooperativity factor by NanoBRET based assay; type: cell-based

T3 sequence (P40338 whole entry, looked up): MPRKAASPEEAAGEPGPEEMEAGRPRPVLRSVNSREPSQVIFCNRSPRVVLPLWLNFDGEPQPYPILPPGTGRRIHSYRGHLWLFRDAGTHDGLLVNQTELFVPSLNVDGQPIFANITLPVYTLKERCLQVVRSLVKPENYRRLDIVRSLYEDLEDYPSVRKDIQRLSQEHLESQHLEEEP
T3 sequence (Q5S006 whole entry, looked up): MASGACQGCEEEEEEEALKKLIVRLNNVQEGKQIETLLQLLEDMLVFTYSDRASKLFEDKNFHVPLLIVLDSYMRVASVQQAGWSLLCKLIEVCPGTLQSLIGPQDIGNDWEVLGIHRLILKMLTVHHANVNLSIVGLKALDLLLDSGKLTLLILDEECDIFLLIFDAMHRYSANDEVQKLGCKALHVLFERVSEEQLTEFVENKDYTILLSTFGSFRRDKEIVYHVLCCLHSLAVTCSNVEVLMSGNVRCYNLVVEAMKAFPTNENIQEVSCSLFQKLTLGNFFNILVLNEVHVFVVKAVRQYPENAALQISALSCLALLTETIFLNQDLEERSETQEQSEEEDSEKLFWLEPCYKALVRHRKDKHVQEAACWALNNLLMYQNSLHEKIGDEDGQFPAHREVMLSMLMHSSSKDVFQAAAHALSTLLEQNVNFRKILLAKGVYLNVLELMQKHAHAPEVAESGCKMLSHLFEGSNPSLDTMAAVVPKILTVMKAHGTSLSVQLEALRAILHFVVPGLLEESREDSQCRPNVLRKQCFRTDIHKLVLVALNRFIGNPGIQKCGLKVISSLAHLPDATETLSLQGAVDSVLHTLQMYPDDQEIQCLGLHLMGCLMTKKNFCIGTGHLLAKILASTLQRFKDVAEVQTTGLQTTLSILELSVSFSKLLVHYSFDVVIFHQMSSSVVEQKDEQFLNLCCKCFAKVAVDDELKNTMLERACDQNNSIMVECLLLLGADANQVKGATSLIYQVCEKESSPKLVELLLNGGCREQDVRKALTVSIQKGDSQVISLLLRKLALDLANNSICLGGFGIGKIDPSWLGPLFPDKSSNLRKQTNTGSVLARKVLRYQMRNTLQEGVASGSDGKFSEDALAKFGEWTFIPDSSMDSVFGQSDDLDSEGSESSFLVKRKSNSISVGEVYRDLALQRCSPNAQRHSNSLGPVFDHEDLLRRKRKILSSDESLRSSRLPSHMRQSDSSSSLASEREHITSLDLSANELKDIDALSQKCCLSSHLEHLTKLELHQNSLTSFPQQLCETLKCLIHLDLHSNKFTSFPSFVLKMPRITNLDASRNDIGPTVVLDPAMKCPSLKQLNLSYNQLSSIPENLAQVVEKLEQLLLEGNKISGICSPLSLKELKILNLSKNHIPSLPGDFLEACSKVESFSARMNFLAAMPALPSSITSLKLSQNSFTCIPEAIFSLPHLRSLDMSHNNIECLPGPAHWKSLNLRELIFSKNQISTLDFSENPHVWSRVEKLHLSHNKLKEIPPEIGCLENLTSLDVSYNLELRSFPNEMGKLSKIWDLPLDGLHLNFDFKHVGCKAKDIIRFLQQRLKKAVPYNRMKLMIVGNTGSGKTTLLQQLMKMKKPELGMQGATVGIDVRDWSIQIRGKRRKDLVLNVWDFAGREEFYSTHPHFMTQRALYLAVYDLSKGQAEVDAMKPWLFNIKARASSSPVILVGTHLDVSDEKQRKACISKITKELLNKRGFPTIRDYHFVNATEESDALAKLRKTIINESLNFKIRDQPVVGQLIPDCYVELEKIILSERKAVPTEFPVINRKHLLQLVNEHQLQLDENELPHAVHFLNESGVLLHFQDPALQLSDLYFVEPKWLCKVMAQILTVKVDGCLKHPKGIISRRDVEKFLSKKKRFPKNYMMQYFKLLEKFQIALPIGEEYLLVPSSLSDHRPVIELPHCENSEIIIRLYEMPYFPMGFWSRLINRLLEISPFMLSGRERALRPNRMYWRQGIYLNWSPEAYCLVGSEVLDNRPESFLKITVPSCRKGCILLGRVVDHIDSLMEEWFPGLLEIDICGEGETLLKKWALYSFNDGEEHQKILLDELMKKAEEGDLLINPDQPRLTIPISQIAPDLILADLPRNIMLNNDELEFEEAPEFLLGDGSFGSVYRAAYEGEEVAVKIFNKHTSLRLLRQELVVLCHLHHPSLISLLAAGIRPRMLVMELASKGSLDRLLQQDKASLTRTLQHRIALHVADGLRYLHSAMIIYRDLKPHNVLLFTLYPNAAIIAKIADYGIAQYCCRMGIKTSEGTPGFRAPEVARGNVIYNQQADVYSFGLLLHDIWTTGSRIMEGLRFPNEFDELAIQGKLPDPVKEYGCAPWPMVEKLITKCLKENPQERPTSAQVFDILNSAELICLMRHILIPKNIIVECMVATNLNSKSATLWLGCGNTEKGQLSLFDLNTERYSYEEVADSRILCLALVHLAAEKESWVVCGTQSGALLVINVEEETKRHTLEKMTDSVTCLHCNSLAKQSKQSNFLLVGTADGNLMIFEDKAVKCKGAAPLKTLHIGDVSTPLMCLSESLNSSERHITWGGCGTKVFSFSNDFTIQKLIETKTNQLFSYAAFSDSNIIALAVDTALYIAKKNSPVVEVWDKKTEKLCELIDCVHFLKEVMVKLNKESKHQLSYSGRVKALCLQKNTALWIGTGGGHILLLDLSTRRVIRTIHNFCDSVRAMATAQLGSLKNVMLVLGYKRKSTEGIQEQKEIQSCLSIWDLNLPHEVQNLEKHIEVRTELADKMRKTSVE
T1 sequence (P40337 whole entry, looked up): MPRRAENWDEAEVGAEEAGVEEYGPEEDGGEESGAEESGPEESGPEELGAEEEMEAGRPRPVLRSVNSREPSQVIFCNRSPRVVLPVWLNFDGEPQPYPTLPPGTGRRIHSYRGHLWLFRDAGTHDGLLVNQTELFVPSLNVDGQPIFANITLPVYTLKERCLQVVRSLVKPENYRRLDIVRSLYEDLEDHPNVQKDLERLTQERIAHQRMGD
T2 sequence (P40337 whole entry, looked up): as above
T2 sequence (Q15369 whole entry, looked up): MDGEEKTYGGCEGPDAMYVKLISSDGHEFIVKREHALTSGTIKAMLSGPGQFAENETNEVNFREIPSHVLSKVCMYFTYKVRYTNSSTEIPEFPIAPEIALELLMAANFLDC
T2 sequence (Q15370 whole entry, looked up): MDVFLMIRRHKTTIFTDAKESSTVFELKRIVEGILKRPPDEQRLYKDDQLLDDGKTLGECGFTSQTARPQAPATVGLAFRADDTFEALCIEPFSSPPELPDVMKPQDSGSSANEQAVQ

COc1ccc(C(=O)N2CCN(C[C@H]3CC[C@H](CSC(C)(C)[C@H](NC(=O)C4(F)CC4)C(=O)N4C[C@H](O)C[C@H]4C(=O)NCc4ccc(-c5scnc5C)cc4)CC3)CC2)cc1
Kd [1]: 585 nM

CC1(Oc2ccc3[nH]nc(-c4cc(N5CCN(C[C@H]6CC[C@@H](CN7CCN(c8ccc9c(c8F)CN(C8CCC(=O)NC8=O)C9=O)CC7)CC6)CC5)ncn4)c3c2)CC1 (stereo partly specified)
DC50 [2]: < 10 nM

Cc1ncsc1-c1ccc(CNC(=O)[C@@H]2C[C@@H](O)CN2C(=O)[C@@H](NC(=O)C2(F)CC2)C(C)(C)SC[C@H]2CC[C@@H](CN3CCOCC3)CC2)cc1
Kd [3]: 165 nM
deltaH [4]: -7.96 kcal/mol
deltaG [5]: -9.25 kcal/mol
TdeltaS [6]: -1.31 kcal/mol
Kd [1]: 354 nM

COc1ccc(C(=O)N2CCN(C[C@H]3CC[C@@H](CSC(C)(C)[C@H](NC(=O)C4(F)CC4)C(=O)N4C[C@H](O)C[C@H]4C(=O)NCc4ccc(-c5scnc5C)cc4)CC3)CC2)cc1
Kd [1]: 260 nM

CNc1nc(Nc2ccc(C(=O)N3CCN(C[C@H]4CC[C@H](CSC(C)(C)[C@H](NC(=O)C5(F)CC5)C(=O)N5C[C@H](O)C[C@H]5C(=O)NCc5ccc(-c6scnc6C)cc5)CC4)CC3)cc2OC)ncc1Cl
Emax [7]: 82%
T1/2 [8]: 1.2 h
Kd [9]: > 2330 nM
Activity [10]: 5.7
Kd [1]: > 820 nM

CSC(C)(C)[C@H](NC(=O)C1(F)CC1)C(=O)N1C[C@H](O)C[C@H]1C(=O)NCc1ccc(-c2scnc2C)cc1
Kd [1]: 406 nM

CNc1nc(Nc2ccc(C(=O)N3CCN(C[C@H]4CC[C@@H](CSC(C)(C)[C@H](NC(=O)C5(F)CC5)C(=O)N5C[C@H](O)C[C@H]5C(=O)NCc5ccc(-c6scnc6C)cc5)CC4)CC3)cc2OC)ncc1Cl
Emax [7]: 59%
T1/2 [8]: 2.7 h
Kd [9]: 160 nM
Activity [10]: 1.4
Kd [1]: 326 nM

Cc1ncsc1-c1ccc(CNC(=O)[C@@H]2C[C@@H](O)CN2C(=O)[C@@H](NC(=O)C2(F)CC2)C(C)(C)SC[C@H]2CC[C@H](CN(C)C)CC2)cc1
Kd [1]: 514 nM

Cc1ncsc1-c1ccc(CNC(=O)[C@@H]2C[C@@H](O)CN2C(=O)[C@@H](NC(=O)C2(F)CC2)C(C)(C)SC[C@H]2CC[C@@H](CN(C)C)CC2)cc1
Kd [1]: 313 nM

Cc1ncsc1-c1ccc(CNC(=O)[C@@H]2C[C@@H](O)CN2C(=O)[C@@H](NC(=O)C2(F)CC2)C(C)(C)SC[C@H]2CC[C@H](CN3CCOCC3)CC2)cc1
Kd [3]: 396 nM
deltaH [4]: -6.98 kcal/mol
deltaG [5]: -8.75 kcal/mol
TdeltaS [6]: -1.77 kcal/mol
Kd [1]: 540 nM

From ChEMBL document CHEMBL5584252, “Stereochemical inversion at a 1,4-cyclohexyl PROTAC linker fine-tunes conformation and binding affinity” (Bioorg Med Chem Lett, 2024)
